# Laboratory results: patent publication EP0299533B1, “High potency sweetening agents” (THE NUTRASWEET COMPANY (a Delaware corporation), priority 1987, dated 1989)
# Structures can show the parent of a compound that is named as a salt.
# Assays:
# [1] = Stability in aqueous sodium phosphate buffer at pH 3, percent remaining by HPLC; assay type: physicochemical; conditions: for half-life: phosphate buffer
# Description: Compound 1 above was dissolved in an aqueous sodium phosphate buffer at a pH of 3 at a concentration of 30 µg/ml. The buffer was prepared by adding concentrated phosphoric acid to sodium phosphate […] until the pH was 3.0. This solution was then maintained at 90°C for 6 days. The percent of compound 1 remaining after 6 days was 98%. […] The half-life was estimated to be 177 days in this buffer at 90°C. The stability of the glycine derivative of this compound, i.e., 1′-N-[N-cyclooctylamino(4-cyanophenylimino)methyl]-glycine was determined in the same way as Cpd. 1 except at 70°C and 50°C instead of 90°C. […] The calculated half-life at 90°C is about 2 days.
# [2] = Taste test: compound was tasted for sweetness; assay type: in vivo
# Description: A mixture of 5-aminomethyltetrazole (0.50 g, 5.05 mmol), sodium hydroxide (0.20 g, 5.00 mmol) and 1.5 ml of water was added to a solution of N-cyclooctyl-N′-(4-cyanophenyl)-S-methylisothiourea (1.52 g, 5.05 mmol) in 15 ml of absolute ethanol. The mixture was heated to 70° for 20 hours. After cooling, the solution was concentrated to dryness and the residue was dissolved in 20 ml of water. The resulting solution was washed with dichloromethane (3 x 20 ml) and then neutralized with a 1 N HCl solution to bring its pH to 7.5. The desired guanidine compound precipitated and was separated out by filtration to give 1.2 g (70%) of white solid. PMR (CD₃OD) δ 7.75 (d, J=8 Hz, 2H), 7.41 (d, J=8 Hz, 2H), 4.70 (s, 2H), 3.82 (m, 1H) and 1.96-1.46 (m, 14H). CMR (DMSO-D6) δ 158.3, 153.3, 144.0, 133.7, 122.0, 119.0, 105.5, 52.8, 37.8, 31.2, 26.8, 24.6 and 22.9. Analysis calculated for C₁₈H₂₄N₈ (0.6 H₂O): C, 59.52; H, 6.99; N, 30.85. Found: C, 59.38; H, 7.07; N, 31.18. The compound was tasted and was sweeet at a concentration of 10 ug/ml.
# All the compounds presented in Examples 1 through 42 were tasted and were sweet.
structure (smiles),measurement,setting,value
"N#Cc1ccc(NC(=NCC(=O)O)NC2CCCCCCC2)cc1 [glycine derivative, 1′-N-[N-cyclooctylamino(4-cyanophenylimino)methyl]-glycine, reference compound]",half-life,"[1]; pH 3, buffer pH 3, 50°C",13 days
same,half-life,"[1]; pH 3, buffer pH 3, 70°C",5 days
"N#Cc1ccc(NC(=NCc2nnn[nH]2)NC2CC3CCC(=O)CC3C2)cc1 (stereo not drawn) [Example 42, 1′-N-[N′-2-Amino-6-oxo-cis-hydrindane (4-Cyanophenylimino)methyl]-5-Aminomethyltetrazole]",concentration at which the compound was tasted and was sweet,[2],100 µg/mL
"N#Cc1ccc(NC(=NCc2nnn[nH]2)NC2CCCCCCC2)cc1 [Example 1, 1'-N-[N-Cyclooctylamino (4-Cyanophenylimino)methyl]-5-Aminomethyltetrazole]",remaining at 144 h,"[1]; aqueous sodium phosphate buffer pH 3, 30 µg/ml, 90°C, 6 days, HPLC, read-out: percent of compound remaining after 6 days",98%
same,half-life,"[1]; pH 3, buffer pH 3, 90°C, estimated",177 days
same,concentration at which the compound was tasted and was sweet,[2],10 µg/mL
N#Cc1ccc(N=C(NCc2nnn[nH]2)NC2CCCCCCC2)cc1 [Example 1 HCl salt],taste when tasted,[2]; no concentration given,sweet
